{"source": "patent US8551960B2", "about": "“Uses of D-mannopyranose derivatives activating angiogenesis” (Centre National de la Recherche Scientifique, priority 2008, dated 2013)", "data": [{"test_system": "chick embryo chorioallantoic membrane (CAM)", "assay": "chick embryo chorioallantoic membrane (CAM) angiogenesis study", "format": "in vivo, chick (Leghorn white breed)", "conditions": "nitrocellulose filter disk soaked with 20 μl of 6 mg/ml in PBS placed on CAM on 7th day; observed on 12th day; estimated visually; FIG. 1", "description": "This study was conducted on chick embryos according to the method described by Ribatti D. et al., Nat. Protoc., 2006, 1(1), 85-91 with some minor modifications.\nThis study was conducted on chick embryo chorioallantoic membrane (CAM). The CAM is an extraembryonic membrane formed on the 4th day of incubation by fusion of the chorion and allantois. It enables gas exchanges to take place between the chick embryo and the extraembryonic environment until birth. This CAM is composed of a very thick capillary network which forms a continuous surface in direct contact with the shell. Rapid capillary proliferation of this membrane continues until the 11th day; the mitotic index then decreases rapidly and the vascular system reaches its final arrangement on the 18th day, just before birth (hatching on the 21st day).\nFertilized chicken eggs of the Leghorn white breed were placed in an incubator at the start of embryogenesis, where they were kept under constant humidity at a temperature of 38° C. On the second day of incubation, a window was made in the shell after removing 2 to 3 ml of albumin in order to detach the CAM from the shell. The window was then sealed with adhesive tape and the egg was put back in the incubator to continue its development until the day of the experiment. On the 7th day, pieces of inert synthetic polymers (nitrocellulose filter disks 0.4 cm in diameter) were soaked with 20 μl of each of the solutions of the test compounds (6 mg/ml in PBS) and were then positioned on the CAM. The effect of the test substances on angiogenesis was then observed on the 12th day and the quantitative evaluation of the pro- or antiangiogenic response was estimated visually.", "values": [{"molecule": "CO[C@H]1O[C@H](CCN)[C@@H](O)[C@H](O)[C@@H]1O", "note": "[Compound I-1, Methyl 7-amino-6,7-dideoxy-α-D-manno-heptopyranoside]", "effect on vascularization of the chick embryos (pro- or antiangiogenic response)": "activating effect on vascularization"}, {"molecule": "CO[C@H]1O[C@H](CN=[N+]=[N-])[C@@H](O)[C@H](O)[C@@H]1O", "note": "[Compound I-2, Methyl 6-Azido-6-Deoxy-α-D-Mannopyranoside]", "effect on vascularization of the chick embryos (pro- or antiangiogenic response)": "activating effect on vascularization"}, {"molecule": "COC1O[C@H](CCP(=O)(O)O)[C@@H](O)[C@H](O)[C@@H]1O", "note": "(stereo partly drawn) [Compound I-4, methyl 7-phosphonato-6,7-dideoxy-D-manno-heptopyranoside]", "effect on vascularization of the chick embryos (pro- or antiangiogenic response)": "activating effect on vascularization"}, {"molecule": "COC1O[C@H](COP(=O)([O-])[O-])[C@@H](O)[C@H](O)[C@@H]1O.[Na+].[Na+]", "note": "(stereo partly drawn) [DM1, methyl(disodium)-6-phosphate-D-manno-pyranoside]", "effect on vascularization of the chick embryos (pro- or antiangiogenic response)": "inhibitory effect on vascularization"}, {"molecule": "COC1O[C@H](CC(C(=O)O)C(=O)O)[C@@H](O)[C@H](O)[C@@H]1O", "note": "(stereo partly drawn) [DM3, methyl 6-deoxy-6-malonate-D-mannopyranoside]", "effect on vascularization of the chick embryos (pro- or antiangiogenic response)": "inhibitory effect on vascularization"}, {"molecule": "COC1O[C@H](CC(=O)O)[C@@H](O)[C@H](O)[C@@H]1O", "note": "(stereo partly drawn) [DM4, (methyl 6,7-dideoxy-D-manno-heptopyranoside)uronic acid]", "effect on vascularization of the chick embryos (pro- or antiangiogenic response)": "inhibitory effect on vascularization"}, {"molecule": "methyl 6,7-dideoxy-7-sulfonato-D-manno-heptopyranoside [DM2]", "effect on vascularization of the chick embryos (pro- or antiangiogenic response)": "inhibitory effect on vascularization"}]}]}
